Holding throughout (assay): growth of human tumour cells (NCI), 48 h
Test [1] relates to CAKI-1 renal.
Test [2] has as its system OVCAR-8 ovarian.
The subject of test [3] is HCT-116 colon.
For test [4], the system named is HOP-92 NSCLC.
Test [5] concerns A498 renal.
For test [6], the system named is HL-60(TB) leukemia.
For test [7], the system named is SR leukemia.
In test [8] the test system is MDA-N.
In test [9] the test system is OVCAR-5 ovarian.

Molecules are shown by their SMILES.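 Cultured in 96-well plates, cells were exposed to test compound for 48 hours across five concentrations. TGI is the concentration that stops growth completely.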

As to `COc1ccc(N=Nc2ccc3oc(=O)c(C(=O)Nc4ccc(OC)cc4)cc3c2)cc1`, the TGI in [1] is greater than 100 µM; in test [2] it was 37.8 µM; in test [3] it was 23.8 µM; in test [4] it was 50.1 µM; in test [5] it was 9.17 µM; in [6], 30.8 µM. Also, the TGI in [7] is 87.5 µM; in [8], greater than 100 µM; in test [9], 50.6 µM.

In the case of `c1ccc(C2(c3cc4ccccc4[nH]3)OCCO2)cc1`, the TGI in test [1], in test [2], in [3], in test [4], in test [5] and in [7] was greater than 100 µM each time. Further, the TGI in test [8] and in test [9] was greater than 100 µM each time.

With `O=C(c1ccccc1)c1cc(-c2ccccc2)c(-c2ccccc2)[nH]c(=O)c1=O`, the TGI in test [1] is greater than 100 µM; in [2] it was greater than 100 µM; in [3], greater than 100 µM; in test [4] it was greater than 100 µM; in test [5], greater than 100 µM; in [6] it was 40.4 µM. The TGI in test [7] is 57.1 µM; in [8], greater than 100 µM; in [9] it was greater than 100 µM.

As for `CCCCCCCCCCCCCCCCCc1nc(C#N)c(N)o1`, the TGI in [1] is greater than 100 µM; in [2] it was 51.8 µM; in [3] it was greater than 100 µM; in test [4], greater than 100 µM; in test [5] it was greater than 100 µM; in test [6] it was 69.6 µM. Also, the TGI in [7] was 33.3 µM; in test [8], greater than 100 µM; in test [9], greater than 100 µM.

On to `C=CCn1c(=O)c(-c2ccccc2)c(O)c2ccccc21`, for which the TGI in test [1], in test [2], in test [3], in [4], in [5] and in [6] was greater than 100 µM each time. Besides, the TGI in test [7], in [8] and in test [9] was greater than 100 µM in each case.

For the compound `O=S(=O)(CC#CCS(=O)(=O)c1ccccc1)c1ccccc1`, the TGI worked out at 3.42 µM in test [1]; 5.16 µM in test [2]; 2.39 µM in [3]; 3.39 µM in test [4]; 36.3 µM in test [5]; 16.1 µM in [6]. In addition, the figures for the TGI in test [7], in test [8] and in test [9] were greater than 100 µM, 4.16 µM and 19.7 µM, respectively.

Regarding `COc1ccc(/C=N/NC(=O)c2ccccc2Nc2ccccc2C(=O)N/N=C/c2ccc(OC)c(OC)c2)cc1OC`, the TGI in [1], in test [2], in [3], in test [4], in [5] and in test [6] was greater than 100 µM each time. Besides, the TGI in [7], in test [8] and in test [9] was greater than 100 µM each time.

Consider `O=C1CSC(c2ccc(Cl)cc2)N1c1ccc(-n2c(-c3ccccc3)nc3ccccc3c2=O)cc1` (stereo not drawn), for which the TGI in test [1], in test [2], in test [3], in test [4], in test [5] and in test [7] was greater than 100 µM in each case. In addition, the TGI in test [8] and in [9] was greater than 100 µM each time.

Turning to `C[C@H]1C(=O)C2=C[C@H]1CCC(=O)[C@]1(C)CCCC(C)(C)[C@H]1C[C@H]2O`, the TGI was greater than 100 µM in test [1]; 35 µM in test [2]; greater than 100 µM in [3]; 54.3 µM in test [4]; greater than 100 µM in test [5]; 39.7 µM in [6]. Further, the results for the TGI in test [7], in [8] and in [9] were 61.3 µM, greater than 100 µM and greater than 100 µM, respectively.

As to `COc1cccc2c(NNc3ccc(Cl)cc3)c3ccc([N+](=O)[O-])cc3nc12`, the TGI in [1] was 15.2 µM; in [3], 20.3 µM; in test [4], 27.7 µM; in [5], 33.2 µM; in test [6], 28.8 µM; in test [7] it was 4 µM. Besides, the results for the TGI in test [8] and in [9] were greater than 100 µM and 91.9 µM, respectively.

Consider `COC(=O)c1ccc2[nH]c3c(c2c1)CC(=O)Nc1ccccc1-3`, for which the TGI in test [1] is greater than 100 µM; in test [2] it was greater than 100 µM; in test [3], greater than 100 µM; in [5], greater than 100 µM; in [7] it was 25 µM; in test [8], greater than 100 µM. In test [9], the TGI was greater than 100 µM.

In the case of `O=C(C(=O)n1ccc2ccccc21)c1c[nH]c2ccccc12`, the TGI in [1], in test [2], in test [3], in test [4], in [6] and in test [7] was greater than 10 µM throughout. Also, the TGI in test [8] and in test [9] was greater than 10 µM in each case.

`NC(N)=NS(=O)(=O)c1ccc(NC(=O)c2c3ccccc3nc3ccccc23)cc1`: the TGI in test [1], in [2], in [3], in test [4], in test [5] and in test [7] was greater than 100 µM in each case. The TGI in test [8] and in test [9] was greater than 100 µM throughout.

For `C[N+]12C=CC=C1C(N1CCCC1)c1sc(-c3ccc(Cl)cc3)cc12` (stereo not drawn), the TGI is greater than 100 µM in test [1]; 33.5 µM in test [2]; 29.6 µM in test [3]; 41.4 µM in [5]; 50.1 µM in [7]; 30.4 µM in test [8]. Moreover, in test [9], the TGI amounted to 35.8 µM.

With `O=C1c2ccccc2C(=O)c2c1c1cc(O)ccc1n2Cc1ccc(Cl)cc1Cl`, the TGI was 14.4 µM in test [1]; 19.1 µM in [2]; 73.2 µM in test [3]; 38.1 µM in test [5]; greater than 100 µM in test [6]; greater than 100 µM in test [7]. The TGI in test [8] is 38.7 µM; in test [9], 5.66 µM.

For `COc1cc(C=Nc2ccc(Oc3ccc(Cl)cc3)c(Cl)c2)cc(OC)c1OC`, the TGI in test [1] was found to be 72 µM; in test [2] it was 62.1 µM; in [3], 29.2 µM; in [4] it was 39.4 µM; in test [6] it was 48.6 µM; in test [7] it was 54.1 µM. Besides, the TGI in [8] is 51.3 µM; in [9], greater than 100 µM.
